Structures can show the parent of a compound that is named as a salt.
How the values were obtained:
[1] = target: T1, human mutant α-Gal A (R301Q) (Homo sapiens, UniProt P06280, R301Q); assay: α-Gal A (GLA) enzyme activity in tissue lysates of R301Q Tg/KO mice; type: in vivo; conditions: 4 weeks
T1 construct: Tissue lysates were prepared by homogenizing about 50 mg tissue in assay buffer; from tissue; host or cells: heart, kidney, skin, liver and spleen of R301Q Tg/KO mice (human transgene, mouse α-Gal A knocked out)
T1 sequence (P06280 32-429 R301Q): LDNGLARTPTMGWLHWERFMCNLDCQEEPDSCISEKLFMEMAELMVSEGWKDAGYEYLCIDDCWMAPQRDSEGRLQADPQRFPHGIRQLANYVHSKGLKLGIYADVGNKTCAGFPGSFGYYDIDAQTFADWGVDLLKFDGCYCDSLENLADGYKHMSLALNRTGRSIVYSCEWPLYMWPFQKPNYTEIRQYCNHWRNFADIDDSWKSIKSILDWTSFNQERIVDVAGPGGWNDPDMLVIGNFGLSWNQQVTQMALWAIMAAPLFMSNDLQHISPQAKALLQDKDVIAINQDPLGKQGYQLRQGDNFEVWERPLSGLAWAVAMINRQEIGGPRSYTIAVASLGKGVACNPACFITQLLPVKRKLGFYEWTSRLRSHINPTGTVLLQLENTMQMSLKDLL
Text: Transgenic mice that exclusively express human mutant α-Gal A (R301Q) in an α-Gal A knock-out background (TgM/KO mice) were established and evaluated. This Example serves as a biochemical model to study and evaluate pharmacological chaperone therapy for Fabry disease, which is specific for those missense mutations that cause misfolding of α-Gal A.
Mice. Fabry R301Q Tg/KO mice were a gift from Dr. Robert Desnick. Male C57BL/6 mice were purchased from Taconic Farms, Germantown, N.Y. and housed in wire cages at 4 mice per cage. All studies were conducted at 8 weeks of age and conducted under strict adherence to IACUC guidelines.
Drug Administration. […] After dosing, indicated tissues were harvested and treated as described below.
Enzyme activity assay. After dosing, indicated tissues were harvested and frozen. Tissue lysates were prepared by homogenizing about 50 mg tissue in assay buffer. 2.5 μL lysate was combined with 17.5 μL of the assay buffer and 50 μL of the respective substrate solution (same as detailed in sections above). Reaction mixtures were then incubated at 37° C. for 1 hr. Afterward, 70 μL stop solution (0.4 M glycine, pH 10.8) was added, and fluorescence was read on a Victor plate reader at 355 nm excitation and 460 nm emission. Enzyme activity in the lysates was background subtracted, and normalized for protein concentration using the MicroBCA Protein Assay Kit (Pierce). A 4-MU standard curve was run (same as detailed in sections above) for conversion of fluorescence data to absolute enzyme activity expressed as nmoles/mg protein/hr or further normalized to % of untreated activity.

GL-3 = GL-3 analysis from mouse tissues (LC-MS/MS); type: in vivo; conditions: male R301Q Tg/KO mice, 30 mg/kg daily per os, 4 weeks
Protocol: Drug Administration. […] For the GL-3 assay, two groups of 6-7 male […] After dosing, indicated tissues were harvested and treated as described below. GL-3 analysis from mouse tissues. Tissue samples were washed free of blood, weighed and homogenized with a solvent system in a FastPrep® system. Homogenate was then extracted using Solid Phase Extraction on a C18 cartridge. The eluent was evaporated and reconstituted prior to injection onto a LC/MS system. Nine GL3 isoforms were measured using positive ESI-MS/MS. LC separation was achieved on a Zorbax C18 column.

[2] = including peripheral neuropathy and severe gastrointestinal effects; even at 150 mg/day; cited from earlier work
[3] = male R301Q Tg/KO mice, 30 mg/kg daily oral gavage, vs. untreated

increase in mutant GLA activity, heart [1, 3] | increase in mutant GLA activity, kidney [1, 3] | increase in mutant GLA activity, liver [1, 3] | increase in mutant GLA activity, skin [1, 3] | increase in mutant GLA activity, spleen [1, 3] | increase in mutant GLA activity, all treated tissues ([1]; male and female R301Q Tg/KO mice, 30 mg/kg/day in drinking water) | Compound | GL-3 levels, kidney tissue (GL-3) | reduction of GL-3 levels, heart tissue (GL-3) | reduction of GL-3 levels, skin tissue (GL-3) | adverse events [2]
11±0.1 -fold | 5.5±0.3 -fold | 3±0.02 -fold | 6.2±0.7 -fold | 5±0.1 -fold | comparable increases | OCC1NCC(O)C(O)C1O (stereo not shown) [DGJ HCl, migalastat hydrochloride] | trend towards reduction, but did not reach statistical significance | 1.6 -fold | 2.2 -fold | –
– | – | – | – | – | – | CCCCN1C[C@H](O)[C@@H](O)[C@H](O)[C@H]1CO [NB-DNJ] | – | – | – | numerous adverse events
